pEC50, pIC50: −log10 of the molar value.

Sequence of MCL-1/Bim (Q07820 171-327): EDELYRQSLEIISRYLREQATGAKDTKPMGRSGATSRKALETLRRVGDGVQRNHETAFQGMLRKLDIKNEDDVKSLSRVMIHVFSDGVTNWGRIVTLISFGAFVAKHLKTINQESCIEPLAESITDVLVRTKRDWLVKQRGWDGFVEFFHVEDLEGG

In one test the target is MCL-1/Bim (Homo sapiens (Human), UniProt Q07820). As to the kind of experiment: MCL-1/Bim Binding AlphaLISA Assay. To be noted: 6xHis-Mcl-1 (171-327) and biotinylated Bim peptide (51-76). Here is the method:
MCL-1/Bim Binding AlphaLISA Assay.
Inhibition of the MCL-1 and Bim interaction was measured in the following AlphaLISA assay.
Recombinant human MCL-1 protein (C-terminal 6×His Tagged Mcl-1 containing residues 171-327) was generated at Gilead Sciences, Inc. (Foster City, Calif.). A biotinylated peptide derived from human Bim (residues 51-76) was purchased from CPC Scientific (Sunnyvale, Calif.). (CPC 834113). AlphaLISA anti-6His-acceptor beads (AL128R), AlphaScreen Streptavidin donor beads (6760002B), and Proxiplate-384 Plus (6008289) were purchased from PerkinElmer.
The AlphaLISA assay was performed in a 384-well Proxiplate in a total volume of 40 μL. The reaction mixture contained 0.0625 nM 6× His-Mcl-1 (171-327), 0.0625 nM biotinylated-Bim peptide, 10 μg/mL AlphaLISA anti-6×His-AlphaLISA acceptor beads, 40 μg/mL AlphaScreen streptavidin donor beads, and serially diluted test compounds in the binding buffer (20 mM Hepes, pH 7.5 (Teknova H1035); 150 mM NaCl (Promega V4221); 0.002% Brij 35 (Thermo Scientific 20150); 1 mM Dithiothreitol (DTT) Solution (Affymetrix 70726); 0.01% BSA (BioLabs B9000S)). 1,000× test compounds were pre-spotted onto 384-well Proxiplate (Labcyte Echo) by Echo 555 Liquid Handler (Labcyte Inc., San Jose, Calif.) followed by incubation of 5 μl Mcl-1(171-327) for 1 hour. Then 5 μL Bim (51-76) was added and incubated for 2 hours. Five μL AlphaLISA anti-6His-AlphaLISA acceptor beads were then added for 1 hour followed by addition of 5 μL AlphaScreen streptavidin donor beads for 1 hour. The reaction plates were then read on an Envision multimode reader (PerkinElmer) using AlphaScreen settings. […] Percent inhibition was calculated as shown below: % Inhibition=100%*(Well−Neg)/(Pos−Neg) Neg: negative control, DMSO Pos: positive control, no Mcl-1 protein, no biotinylated-Bim peptide
Turning to `CCC(=O)NS1(=O)=NC(=O)c2ccc3c(c2)N(C[C@@H]2CC[C@H]2[C@@H](OC)/C=C/CCC1)C[C@@]1(CCCc2cc(Cl)ccc21)CO3` (single isomer, unassigned) [Example 4], the pIC50 was 9.15.
`CCOC(=O)NS1(=O)=NC(=O)c2ccc3c(c2)N(C[C@@H]2CC[C@H]2[C@@H](OC)/C=C/CCC1)C[C@@]1(CCCc2cc(Cl)ccc21)CO3` (single isomer, unassigned) [Example 10] showed a pIC50 of 8.44.
The compound `CCC(=O)N[S@]1(=O)=NC(=O)c2ccc3c(c2)N(C[C@@H]2CC[C@H]2[C@@H](OC)/C=C/CCC1)C[C@@]1(CCCc2cc(Cl)ccc21)CO3` [Example 3] gave a pIC50 of 8.39.
`CO[C@H]1/C=C/CCC[S@@](N)(=O)=NC(=O)c2ccc3c(c2)N(C[C@@H]2CC[C@H]21)C[C@@]1(CCCc2cc(Cl)ccc21)CO3` [Example 5] showed a pIC50 of 7.22.
Compound `CCOC(=O)N[S@]1(=O)=NC(=O)c2ccc3c(c2)N(C[C@@H]2CC[C@H]2[C@@H](OC)/C=C/CCC1)C[C@@]1(CCCc2cc(Cl)ccc21)CO3` [Example 9] gave a pIC50 of 8.18.
In turn, `CCC(=O)N[S@@]1(=O)=NC(=O)c2ccc3c(c2)N(C[C@@H]2CC[C@H]2[C@@H](OC)CCCCC1)C[C@@]1(CCCc2cc(Cl)ccc21)CO3` [Example 11] had a pIC50 of 8.19.
As to `CCNC(=O)N[S@@]1(=O)=NC(=O)c2ccc3c(c2)N(C[C@@H]2CC[C@H]2[C@@H](OC)CCCCC1)C[C@@]1(CCCc2cc(Cl)ccc21)CO3` [Example 13], the pIC50 is 8.74.
Still for that read-out and setting: under `CCNC(=O)N[S@@]1(=O)=NC(=O)c2ccc3c(c2)N(C[C@@H]2CC[C@H]2[C@@H](OC)CCCCC1)C[C@@]1(CCCc2cc(Cl)ccc21)CO3` [Example 14] stands 9.52; under `CCC(=O)N[S@@]1(=O)=NC(=O)c2ccc3c(c2)N(C[C@@H]2CC[C@H]2[C@@H](OC)CCCCC1)C[C@@]1(CCCc2ccccc21)CO3` [Example 16], 8.38.
`CCC(=O)N[S@@]1(=O)=NC(=O)c2ccc3c(c2)N(C[C@@H]2CC[C@H]2[C@@H](O)/C=C/CCC1)C[C@@]1(CCCc2cc(Cl)ccc21)CO3` [Example 62] showed a pIC50 of 9.40.
Compound `CCC(=O)N[S@]1(=O)=NC(=O)c2ccc3c(c2)N(C[C@@H]2CC[C@H]2[C@@H](O)/C=C/CCC1)C[C@@]1(CCCc2cc(Cl)ccc21)CO3` [Example 63] showed a pIC50 of 8.85.
`CCC(=O)N[S@]1(=O)=NC(=O)c2ccc3c(c2)N(C[C@@H]2CC[C@H]2[C@@H](OC)/C=C/CCCC1)C[C@@]1(CCCc2cc(Cl)ccc21)CO3` [Example 69] gave a pIC50 of 8.40.
The compound `CO[C@H]1/C=C/C[C@H](C)C[S@@](=O)(NC(=O)NCC2CC2)=NC(=O)c2ccc3c(c2)N(C[C@@H]2CC[C@H]21)C[C@@]1(CCCc2cc(Cl)ccc21)CO3` [Example 107] showed a pIC50 of 10.00.
The compound `COc1nn(C)cc1C(=O)N[S@@]1(=O)=NC(=O)c2ccc3c(c2)N(C[C@@H]2CC[C@H]2[C@@H](O)/C=C/[C@H](O)[C@H](C)C1)C[C@@]1(CCCc2cc(Cl)ccc21)CO3` [Example 279] showed a pIC50 of 10.39.

The test system of a further test is SKBR3 cells. The test is described as follows: SKBR3 Cell Viability Assay. To be noted: 72 hours, CellTiter Glo, read-out: MCL-1 CV SKBR3 EC50. In kind it is cell-based. The procedure:
SKBR3 Cell Viability Assay Materials
SKBR3 Cells (ATCC HTB-30) were obtained from ATCC (Manassas, Va.) and cultured in McCoy 5A's medium (ATCC 30-2007)+10% fetal bovine serum (SH30071.03, HyClone, Pittsburgh, Pa.) plus 1× Penicillin-Streptomycin L-glutamine (Corning 30-009-C1, Corning, N.Y.)).
The cell viability assay was conducted in a 384-well tissue culture plate (Grenier 781086, Monroe, N.C.) in a total volume of 70 μL. Test compounds were prepared in 1,000×, serially diluted, and pre-spotted into 384-well tissue culture plate by Echo 555 Liquid Handler (Labcyte Inc., San Jose, Calif.). Seventy μ1 of 6,000 SKBR3 cells were dispensed into each well of the plate and incubated at 37° C. with 5% CO2 for 72 hours. At the end of incubation, 2× CellTiter Glo (CTG) reagents (1 part buffer with 2 parts substrate) (Promega, Madison, Wis.) were prepared, and the plate and the reagent were equilibrated to room temperature for 30 minutes. CTG reagent was added to each plate by Biomek FX at 20 μL/well with 5 times pipetting and mixing to induce cell lysis. Luminescence was read by Envision multimode reader (PerkinElmer). […] Percent inhibition was calculated as followed: % Inhibition=100%*(Well−Neg)/(Pos−Neg) Neg, negative control, DMSO Pos, positive control, 10 μM Puromycin
For `CO[C@H]1/C=C/CCC[S@@](=O)(NC(=O)CC2CC2)=NC(=O)c2ccc3c(c2)N(C[C@@H]2CC[C@H]21)C[C@@]1(CCCc2cc(Cl)ccc21)CO3` [Example 21], the pEC50 is 5.89.
For the compound `CO[C@H]1/C=C/CCC[S@@](=O)(NC(=O)CC(F)(F)F)=NC(=O)c2ccc3c(c2)N(C[C@@H]2CC[C@H]21)C[C@@]1(CCCc2cc(Cl)ccc21)CO3` [Example 23], the pEC50 was 5.84.
On to `CO[C@H]1/C=C/CCC[S@@](=O)(NC(=O)C2COC2)=NC(=O)c2ccc3c(c2)N(C[C@@H]2CC[C@H]21)C[C@@]1(CCCc2cc(Cl)ccc21)CO3` [Example 24], for which the pEC50 is 6.05.
The same measure, in the same setting: then `CO[C@H]1/C=C/CCC[S@@](=O)(NC(=O)C2CC2)=NC(=O)c2ccc3c(c2)N(C[C@@H]2CC[C@H]21)C[C@@]1(CCCc2cc(Cl)ccc21)CO3` [Example 27], with 5.68.
`CO[C@H]1/C=C/CCC[S@@](=O)(NC(=O)CCS(C)(=O)=O)=NC(=O)c2ccc3c(c2)N(C[C@@H]2CC[C@H]21)C[C@@]1(CCCc2cc(Cl)ccc21)CO3` [Example 28]: the negative logarithm of the EC50 (pEC50) was 5.08.
Still for that read-out and setting: under `CO[C@H]1/C=C/CCC[S@@](=O)(NC(=O)Cc2ccnn2C)=NC(=O)c2ccc3c(c2)N(C[C@@H]2CC[C@H]21)C[C@@]1(CCCc2cc(Cl)ccc21)CO3` [Example 29] stands 5.74; under `CO[C@H]1/C=C/CCC[S@@](=O)(NC(=O)Cc2ncccn2)=NC(=O)c2ccc3c(c2)N(C[C@@H]2CC[C@H]21)C[C@@]1(CCCc2cc(Cl)ccc21)CO3` [Example 30], 5.74.
In the case of `CO[C@H]1/C=C/CCC[S@@](=O)(NC(=O)C2CCC2)=NC(=O)c2ccc3c(c2)N(C[C@@H]2CC[C@H]21)C[C@@]1(CCCc2cc(Cl)ccc21)CO3` [Example 31], the negative-log EC50 (pEC50) is 5.59.
Turning to `COC1CCn2cc(C(=O)N[S@@]3(=O)=NC(=O)c4ccc5c(c4)N(C[C@@H]4CC[C@H]4[C@@H](OC)/C=C/C[C@H](C)C3)C[C@@]3(CCCc4cc(Cl)ccc43)CO5)cc2C1` (stereo partly drawn) [Example 175], the pEC50 is 7.47.
Consider `CO[C@H]1/C=C/C[C@H](C)C[S@@](=O)(NC(=O)c2cc3n(c2)CCc2c-3cnn2C)=NC(=O)c2ccc3c(c2)N(C[C@@H]2CC[C@H]21)C[C@@]1(CCCc2cc(Cl)ccc21)CO3` [Example 208], for which the pEC50 was 7.35.
For `CO[C@H]1/C=C/C[C@H](C)C[S@@](=O)(NC(=O)N2C[C@@H](OC)[C@@H]2C)=NC(=O)c2ccc3c(c2)N(C[C@@H]2CC[C@H]21)C[C@@]1(CCCc2cc(Cl)ccc21)CO3` [Example 253], the pEC50 was 7.41.
On to `COC1CN(C(=O)N[S@@]2(=O)=NC(=O)c3ccc4c(c3)N(C[C@@H]3CC[C@H]3[C@@H](O)/C=C/C[C@H](C)C2)C[C@@]2(CCCc3cc(Cl)ccc32)CO4)C1` [Example 266], for which the pEC50 was 7.27.
For `COc1ccc(C(=O)N[S@@]2(=O)=NC(=O)c3ccc4c(c3)N(C[C@@H]3CC[C@H]3[C@@H](OC)/C=C/C[C@H](C)C2)C[C@@]2(CCCc3cc(Cl)ccc32)CO4)cc1` [Example 273], the pEC50 is 7.09.
For `CO[C@H]1/C=C/C[C@H](C)C[S@@](=O)(NC(=O)N2CC(OC(=O)N(C)C)C2)=NC(=O)c2ccc3c(c2)N(C[C@@H]2CC[C@H]21)C[C@@]1(CCCc2cc(Cl)ccc21)CO3` [Example 292], the pEC50 was 7.35.
`CO[C@H]1/C=C/C[C@H](C)C[S@@](=O)(NC(=O)c2cn(C)nc2OCCN2CCOCC2)=NC(=O)c2ccc3c(c2)N(C[C@@H]2CC[C@H]21)C[C@@]1(CCCc2cc(Cl)ccc21)CO3` [Example 319]: the pEC50 was 7.70.
Consider `CO[C@H]1/C=C\C[C@H](C)[C@@H](C)[S@@](=O)(NC(=O)COC2CCOCC2)=NC(=O)c2ccc3c(c2)N(C[C@@H]2CC[C@H]21)C[C@@]1(CCCc2cc(Cl)ccc21)CO3` [Example 406], for which the pEC50 is 6.48.

The test is the same for the next values; noted with them: Homo sapiens, SK-BR-3, 72 h, CellTiter Glo, read-out: MCL-1 CV SKBR3 EC50.
On to `COc1nn(C)cc1C(=O)NS1(=O)=NC(=O)c2ccc3c(c2)N(C[C@@H]2CC[C@H]2[C@@H](OC)/C=C/C[C@H](C)C1)C[C@@]1(CCCc2cc(Cl)ccc21)CO3` (single isomer, unassigned) [Example 388], for which the pEC50 was 5.86.
`COc1nn(C)cc1C(=O)N[S@@]1(=O)=NC(=O)c2ccc3c(c2)N(C[C@@H]2CC[C@H]2[C@@H](OC)/C=C/C[C@H](C)C1)C[C@@]1(CCCc2cc(Cl)ccc21)CO3` [Example 154]: the negative logarithm of the EC50 (pEC50) is 7.62.
On the same count and under the same terms, under `CO[C@H]1/C=C/C[C@H](C)C[S@@](=O)(NC(=O)c2cc3n(c2F)CCOC3)=NC(=O)c2ccc3c(c2)N(C[C@@H]2CC[C@H]21)C[C@@]1(CCCc2cc(Cl)ccc21)CO3` [Example 174] stands 6.99.

The values above are taken from US10988451B2, “MCL-1 inhibitors” (Gilead Sciences, Inc., priority 2018, dated 2021).
